Test results from the supplement of paper PMC13207355.

Columns and labels:
Details in all cases: exposure time: 72 h
E13 [1] = patient-derived glioblastoma stem cells of classical subtype; test: surviving fraction (nuclei count normalised to DMSO); higher = more cells surviving (less toxic)
E21 [2] = patient-derived glioblastoma stem cells of mesenchymal subtype; test: as above
E28 [3] = patient-derived glioblastoma stem cells of classical subtype; test: as above
E34 [4] = patient-derived glioblastoma stem cells of proneural subtype; test: as above
E57 [5] = patient-derived glioblastoma stem cells of mesenchymal subtype; test: as above
FT3469 [6] = normal neural stem cell line; test: as above
E13 [7] = test: phenotypic distance (Euclidean, principal components) from DMSO controls (arbitrary units); higher = stronger morphological change
E21 [8] = test: as above
E28 [9] = test: as above
E34 [10] = test: as above
E57 [11] = test: as above
FT3469 [12] = test: as above
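Wherever phenotypic distance (Euclidean, principal components) from DMSO controls is given: cell Painting imaging in 384-well plates, CellProfiler features reduced to at least 20 principal components, Euclidean distance versus same-plate DMSO vehicle wells (0.1% v/v), median over six images per well.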
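Wherever surviving fraction (nuclei count normalised to DMSO) is given: nuclei counted by high-content imaging of Hoechst-stained cells in laminin-coated 384-well plates, relative to 0.1% DMSO vehicle wells, with staurosporine as cell-death control.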

COc1cc2c(NC3CCN(C(C)C)CC3)nc(C3CCCCC3)nc2cc1OCCCN1CCCC1 [UNC0638]
Details	phenotypic distance	surviving fraction
E13 [1], 4.1 nM	–	0.973
E13 [1], 12.3 nM	–	0.986
E13 [1], 37 nM	–	0.987
E13 [1], 111.1 nM	–	0.957
E13 [1], 333.3 nM	–	1.01
E13 [1], 1000 nM	–	0.938
E13 [1], 3000 nM	–	0.894
E13 [7], 4.1 nM	0.43	–
E13 [7], 12.3 nM	0.523	–
E13 [7], 37 nM	0.48	–
E13 [7], 111.1 nM	0.587	–
E13 [7], 333.3 nM	0.476	–
E13 [7], 1000 nM	0.582	–
E13 [7], 3000 nM	1.57	–
E21 [2], 4.1 nM	–	0.976
E21 [2], 12.3 nM	–	0.999
E21 [2], 37 nM	–	1.11
E21 [2], 111.1 nM	–	1.02
E21 [2], 333.3 nM	–	0.976
E21 [2], 1000 nM	–	0.933
E21 [2], 3000 nM	–	0.808
E21 [8], 4.1 nM	0.389	–
E21 [8], 12.3 nM	0.354	–
E21 [8], 37 nM	0.463	–
E21 [8], 111.1 nM	1.99	–
E21 [8], 333.3 nM	0.574	–
E21 [8], 1000 nM	0.957	–
E21 [8], 3000 nM	2.1	–
E28 [3], 4.1 nM	–	1.03
E28 [3], 12.3 nM	–	0.988
E28 [3], 37 nM	–	1.01
E28 [3], 111.1 nM	–	1.01
E28 [3], 333.3 nM	–	0.967
E28 [3], 1000 nM	–	1.03
E28 [3], 3000 nM	–	0.942
E28 [9], 4.1 nM	0.389	–
E28 [9], 12.3 nM	0.447	–
E28 [9], 37 nM	0.394	–
E28 [9], 111.1 nM	0.488	–
E28 [9], 333.3 nM	0.53	–
E28 [9], 1000 nM	0.586	–
E28 [9], 3000 nM	1.38	–
E34 [4], 4.1 nM	–	0.998
E34 [4], 12.3 nM	–	1.1
E34 [4], 37 nM	–	1.082
E34 [4], 111.1 nM	–	1.07
E34 [4], 333.3 nM	–	1.15
E34 [4], 1000 nM	–	1.07
E34 [4], 3000 nM	–	0.964
E34 [10], 4.1 nM	0.461	–
E34 [10], 12.3 nM	0.632	–
E34 [10], 37 nM	0.627	–
E34 [10], 111.1 nM	0.646	–
E34 [10], 333.3 nM	0.795	–
E34 [10], 1000 nM	0.627	–
E34 [10], 3000 nM	0.864	–
E57 [5], 4.1 nM	–	1.03
E57 [5], 12.3 nM	–	1.02
E57 [5], 37 nM	–	1.084
E57 [5], 111.1 nM	–	1.01
E57 [5], 333.3 nM	–	1.0497
E57 [5], 1000 nM	–	1.08
E57 [5], 3000 nM	–	1.05
E57 [11], 4.1 nM	0.284	–
E57 [11], 12.3 nM	0.449	–
E57 [11], 37 nM	0.421	–
E57 [11], 111.1 nM	0.484	–
E57 [11], 333.3 nM	0.486	–
E57 [11], 1000 nM	0.443	–
E57 [11], 3000 nM	1.09	–
FT3469 [6], 4.1 nM	–	1.03
FT3469 [6], 12.3 nM	–	1.02
FT3469 [6], 37 nM	–	0.961
FT3469 [6], 111.1 nM	–	0.975
FT3469 [6], 333.3 nM	–	0.953
FT3469 [6], 1000 nM	–	0.929
FT3469 [6], 3000 nM	–	0.864
FT3469 [12], 4.1 nM	0.514	–
FT3469 [12], 12.3 nM	0.766	–
FT3469 [12], 37 nM	0.527	–
FT3469 [12], 111.1 nM	0.558	–
FT3469 [12], 333.3 nM	0.523	–
FT3469 [12], 1000 nM	0.714	–
FT3469 [12], 3000 nM	3.19	–

CCn1cc(-c2ccnc3[nH]c(-c4cccc(CN(C)C)c4)cc23)c(-c2ccc(NC(=O)N(C)C)cc2)n1
Details	phenotypic distance	surviving fraction
E13 [1], 4.1 nM	–	0.468
E13 [1], 12.3 nM	–	0.437
E13 [1], 37 nM	–	0.458
E13 [1], 111.1 nM	–	0.46
E13 [1], 333.3 nM	–	0.49
E13 [1], 1000 nM	–	0.456
E13 [1], 3000 nM	–	0.439
E13 [7], 4.1 nM	4.52	–
E13 [7], 12.3 nM	4.8	–
E13 [7], 37 nM	4.56	–
E13 [7], 111.1 nM	5.0354	–
E13 [7], 333.3 nM	4.64	–
E13 [7], 1000 nM	4.84	–
E13 [7], 3000 nM	3.74	–
E21 [2], 4.1 nM	–	0.418
E21 [2], 12.3 nM	–	0.428
E21 [2], 37 nM	–	0.442
E21 [2], 111.1 nM	–	0.449
E21 [2], 333.3 nM	–	0.359
E21 [2], 1000 nM	–	0.4316
E21 [2], 3000 nM	–	0.314
E21 [8], 4.1 nM	4.9	–
E21 [8], 12.3 nM	5.1	–
E21 [8], 37 nM	5.06	–
E21 [8], 111.1 nM	5.32	–
E21 [8], 333.3 nM	5.21	–
E21 [8], 1000 nM	4.91	–
E21 [8], 3000 nM	5.07	–
E28 [3], 4.1 nM	–	0.639
E28 [3], 12.3 nM	–	0.603
E28 [3], 37 nM	–	0.542
E28 [3], 111.1 nM	–	0.5559
E28 [3], 333.3 nM	–	0.549
E28 [3], 1000 nM	–	0.53
E28 [3], 3000 nM	–	0.397
E28 [9], 4.1 nM	2.81	–
E28 [9], 12.3 nM	2.81	–
E28 [9], 37 nM	2.55	–
E28 [9], 111.1 nM	2.69	–
E28 [9], 333.3 nM	2.57	–
E28 [9], 1000 nM	2.83	–
E28 [9], 3000 nM	2.95	–
E34 [4], 4.1 nM	–	0.664
E34 [4], 12.3 nM	–	0.622
E34 [4], 37 nM	–	0.787
E34 [4], 111.1 nM	–	0.815
E34 [4], 333.3 nM	–	0.842
E34 [4], 1000 nM	–	0.8037
E34 [4], 3000 nM	–	0.673
E34 [10], 4.1 nM	2.75	–
E34 [10], 12.3 nM	2.68	–
E34 [10], 37 nM	2.46	–
E34 [10], 111.1 nM	2.4	–
E34 [10], 333.3 nM	2.43	–
E34 [10], 1000 nM	2.62	–
E34 [10], 3000 nM	1.93	–
E57 [5], 4.1 nM	–	0.385
E57 [5], 12.3 nM	–	0.338
E57 [5], 37 nM	–	0.287
E57 [5], 111.1 nM	–	0.325
E57 [5], 333.3 nM	–	0.306
E57 [5], 1000 nM	–	0.314
E57 [5], 3000 nM	–	0.221
E57 [11], 4.1 nM	4.79	–
E57 [11], 12.3 nM	4.9	–
E57 [11], 37 nM	6.03	–
E57 [11], 111.1 nM	5.9	–
E57 [11], 333.3 nM	6.027	–
E57 [11], 1000 nM	5.9	–
E57 [11], 3000 nM	5.4	–
FT3469 [6], 4.1 nM	–	0.759
FT3469 [6], 12.3 nM	–	0.76
FT3469 [6], 37 nM	–	0.788
FT3469 [6], 111.1 nM	–	0.844
FT3469 [6], 333.3 nM	–	0.708
FT3469 [6], 1000 nM	–	0.729
FT3469 [6], 3000 nM	–	0.591
FT3469 [12], 4.1 nM	1.96	–
FT3469 [12], 12.3 nM	2.32	–
FT3469 [12], 37 nM	2	–
FT3469 [12], 111.1 nM	2.07	–
FT3469 [12], 333.3 nM	2.13	–
FT3469 [12], 1000 nM	2.98	–
FT3469 [12], 3000 nM	2.08	–

CCn1c(-c2nonc2N)nc2cnc(Oc3cccc(NC(=O)c4ccc(OCCN5CCOCC5)cc4)c3)cc21
Details	phenotypic distance	surviving fraction
E13 [1], 4.1 nM	–	0.992
E13 [1], 12.3 nM	–	0.995
E13 [1], 37 nM	–	0.9924
E13 [1], 111.1 nM	–	1.0033
E13 [1], 333.3 nM	–	1.03
E13 [1], 1000 nM	–	0.729
E13 [1], 3000 nM	–	0.633
E13 [7], 4.1 nM	2.07	–
E13 [7], 12.3 nM	2.22	–
E13 [7], 37 nM	2.86	–
E13 [7], 111.1 nM	2.12	–
E13 [7], 333.3 nM	2.126	–
E13 [7], 1000 nM	2.51	–
E13 [7], 3000 nM	3.08	–
E21 [2], 4.1 nM	–	0.933
E21 [2], 12.3 nM	–	0.948
E21 [2], 37 nM	–	0.974
E21 [2], 111.1 nM	–	0.925
E21 [2], 333.3 nM	–	0.898
E21 [2], 1000 nM	–	0.613
E21 [2], 3000 nM	–	0.448
E21 [8], 4.1 nM	1.88	–
E21 [8], 12.3 nM	2.27	–
E21 [8], 37 nM	2.12	–
E21 [8], 111.1 nM	2.01	–
E21 [8], 333.3 nM	1.94	–
E21 [8], 1000 nM	2.16	–
E21 [8], 3000 nM	2.66	–
E28 [3], 4.1 nM	–	0.9684
E28 [3], 12.3 nM	–	0.977
E28 [3], 37 nM	–	1.02
E28 [3], 111.1 nM	–	0.996
E28 [3], 333.3 nM	–	0.909
E28 [3], 1000 nM	–	0.619
E28 [3], 3000 nM	–	0.5398
E28 [9], 4.1 nM	2.14	–
E28 [9], 12.3 nM	2.12	–
E28 [9], 37 nM	2.16	–
E28 [9], 111.1 nM	2.28	–
E28 [9], 333.3 nM	2.41	–
E28 [9], 1000 nM	3.356	–
E28 [9], 3000 nM	3.1	–
E34 [4], 4.1 nM	–	1.12
E34 [4], 12.3 nM	–	1.14
E34 [4], 37 nM	–	1.176
E34 [4], 111.1 nM	–	0.989
E34 [4], 333.3 nM	–	1.02
E34 [4], 1000 nM	–	0.887
E34 [4], 3000 nM	–	0.746
E34 [10], 4.1 nM	1.73	–
E34 [10], 12.3 nM	1.69	–
E34 [10], 37 nM	2.04	–
E34 [10], 111.1 nM	1.79	–
E34 [10], 333.3 nM	1.73	–
E34 [10], 1000 nM	1.67	–
E34 [10], 3000 nM	2.39	–
E57 [5], 4.1 nM	–	1.06
E57 [5], 12.3 nM	–	1.01
E57 [5], 37 nM	–	1.01
E57 [5], 111.1 nM	–	0.996
E57 [5], 333.3 nM	–	0.86
E57 [5], 1000 nM	–	0.645
E57 [5], 3000 nM	–	0.486
E57 [11], 4.1 nM	0.962	–
E57 [11], 12.3 nM	1.68	–
E57 [11], 37 nM	0.775	–
E57 [11], 111.1 nM	0.817	–
E57 [11], 333.3 nM	1.73	–
E57 [11], 1000 nM	2.26	–
E57 [11], 3000 nM	3.68	–
FT3469 [6], 4.1 nM	–	1.18
FT3469 [6], 12.3 nM	–	1.18
FT3469 [6], 37 nM	–	1.12
FT3469 [6], 111.1 nM	–	1.055
FT3469 [6], 333.3 nM	–	1.06
FT3469 [6], 1000 nM	–	0.911
FT3469 [6], 3000 nM	–	0.766
FT3469 [12], 4.1 nM	2.61	–
FT3469 [12], 12.3 nM	1.73	–
FT3469 [12], 37 nM	1.75	–
FT3469 [12], 111.1 nM	1.587	–
FT3469 [12], 333.3 nM	1.48	–
FT3469 [12], 1000 nM	1.9	–
FT3469 [12], 3000 nM	3.17	–
